# The source made the active and inactive calls. The rule behind the calls is not given here.
# System: cell imaging, HER kinase expression, mean fluorescence
# Assay: HER kinase expression suppression, imaging readout – mean fluorescence, total cell number, dose response (AID 814)
# [1] = measured here: total cell number (cytotoxicity)
Compound,EC50,EC50 [1]
Cc1ccc(CNC(=O)c2cc3c(-c4ccc(Cl)cc4)nn(C)c3s2)o1,> 10 µM (inactive),> 10 µM
CS(=O)(=O)c1nc(-c2ccccc2)cc(C(F)(F)F)n1,> 10 µM (inactive),> 10 µM
O=C(CSc1nc2cc(Cl)ccc2s1)c1ccco1,> 10 µM (inactive),> 10 µM
O=S1(=O)C=C(Sc2nc3cc(Cl)ccc3o2)c2ccccc21,> 10 µM (inactive),> 10 µM
Cc1nn2c(-c3ccco3)nnc2c2ccccc12,8.3 µM,> 10 µM
Cc1nc2nc(-c3ccco3)nn2c(C)c1Cl,9.52 µM,> 10 µM
CCCn1c(NC(=O)c2ccco2)nc2ccccc21,9.35 µM,> 10 µM
CS(=O)(=O)c1nc(-c2cccs2)cc(C(F)(F)F)n1,> 10 µM (inactive),> 10 µM
O=S(=O)(CC(CN1CCCC1)N1CCCC1)c1ccc2ccccc2c1 (stereo not drawn),7.75 µM,> 10 µM
COc1ccc(C(=O)C(CN2CCCC2)c2ccccc2)cc1 (stereo not drawn),8.27 µM,> 10 µM
CSC1=N/C(=C\C=C\c2cccs2)C(=O)S1,> 10 µM (inactive),> 10 µM
Nc1nnnn1/N=C/C(Br)=C/c1ccccc1,4.69 µM,> 10 µM
Cc1ccc(-c2csc3ncnc(Sc4nnc(CN5CCCCCC5=O)o4)c23)cc1,8.06 µM,> 10 µM
O=S(=O)(C/C(=C/CO)S(=O)(=O)c1ccccc1)c1ccccc1,> 10 µM (inactive),> 10 µM
O=S1(=O)C=C(Sc2nnc(-c3ccccc3)o2)c2ccccc21,8.72 µM,> 10 µM
CCCCS(=O)(=O)/C=C\C=C/S(=O)(=O)CCCC,8.14 µM,7.52 µM
CS(=O)(=O)c1nc(-c2ccco2)cc(C(F)(F)F)n1,> 10 µM (inactive),> 10 µM
Cn1c(C(C#N)C(=O)c2ccco2)nc2ccccc21 (stereo not drawn),8.31 µM,> 10 µM
CC(=O)c1sc2nc(-c3cccs3)cc(C(F)(F)F)c2c1N,> 10 µM (inactive),> 10 µM
CN(C)CC(C(=O)c1ccccc1)c1ccccc1 (stereo not drawn),6.95 µM,> 10 µM
CCN1/C(=C/C(=O)c2ccco2)Sc2ccccc21,8.32 µM,> 10 µM
Cc1nc(NC(=O)c2ccco2)sc1C(=O)Nc1ccc(Br)cc1,8.41 µM,> 10 µM
O=S1(=O)C=C(Sc2nc3ccccc3s2)c2ccccc21,5.41 µM,7.61 µM
COC(=O)c1sccc1NC(=O)c1ccc(Cl)s1,6.49 µM,> 10 µM

# Reference: PubChem BioAssay AID814 (SRMLSC, 2007)
